Experimental findings from ChEMBL document CHEMBL3045812, “Synthesis of fatty acid Schiff base esters as potential antimicrobial and chemotherapeutic agents” (Med Chem Res, 2013) are described below.

Molecules are shown by their SMILES. ≈ marks a conversion by molar mass, not a printed value. Calls of active or inactive are those of the source.

The test system of test [1] is Pseudomonas aeruginosa. As to the kind of experiment: Antibacterial activity against Pseudomonas aeruginosa MTCC 2453 after 24 hr by microtiter broth dilution method. It counts as functional.
The subject of test [2] is Staphylococcus aureus. As to the kind of experiment: Antibacterial activity against Staphylococcus aureus MLS16 MTCC 2940 after 24 hr by microtiter broth dilution method. It counts as functional. The settings on record: MLS16 MTCC 2940, 24 h. On the technique in general: Broth dilution looks for growth in wells or tubes with falling amounts of substance.
For test [3], the system named is Bacillus subtilis. The test can be described thus: Antibacterial activity against Bacillus subtilis MTCC 121 after 24 hr by microtiter broth dilution method. It counts as functional.
For test [4], the system named is Staphylococcus aureus. As to the kind of experiment: Antibacterial activity against Staphylococcus aureus MTCC 96 after 24 hr by microtiter broth dilution method. In kind it is functional. The settings on record: MTCC 96, 24 h.
Test [5] deals with Candida albicans. As to the kind of experiment: Antifungal activity against Candida albicans MTCC 7315 after 24 hr by microtiter broth dilution method. It counts as functional. The settings on record: MTCC 7315, 24 h.
For test [6], the system named is Candida albicans. As to the kind of experiment: Antifungal activity against Candida albicans MTCC 227 after 24 hr by microtiter broth dilution method. In kind it is functional. The settings on record: MTCC 227, 24 h.
For test [7], the system named is Candida albicans. The test can be described thus: Antifungal activity against Candida albicans MTCC 854 after 24 hr by microtiter broth dilution method. In kind it is functional. The settings on record: MTCC 854, 24 h.
Test [8] deals with Raoultella planticola. The test can be described thus: Antibacterial activity against Raoultella planticola MTCC 530 at 1.4 to 300 ug/ml after 24 hr by microtiter broth dilution method. In kind it is functional, organism-based.
The subject of test [9] is Escherichia coli. The test can be described thus: Antibacterial activity against Escherichia coli MTCC 739 at 1.4 to 300 ug/ml after 24 hr by microtiter broth dilution method. In kind it is functional, organism-based.
In test [10] the test system is Micrococcus luteus. The test can be described thus: Antibacterial activity against Micrococcus luteus MTCC 2470 at 1.4 to 300 ug/ml after 24 hr by microtiter broth dilution method. In kind it is functional, organism-based.
Test [11] relates to N2a. As to the kind of experiment: Cytotoxicity against Mus musculus (mouse) Neuro2a cells by tetrazolium-reduction assay. It counts as functional, cell-based.
Test [12] has as its system HeLa. The test can be described thus: Cytotoxicity against Homo sapiens (human) HeLa cells by tetrazolium-reduction assay. In kind it is functional, cell-based.
Test [13] concerns HepG2. The test can be described thus: Cytotoxicity against Homo sapiens (human) HepG2 cells by tetrazolium-reduction assay. In kind it is functional, cell-based.
In test [14] the test system is A549. The test can be described thus: Cytotoxicity against Homo sapiens (human) A549 cells by tetrazolium-reduction assay. It counts as functional, cell-based.
The subject of test [15] is Pichia sporocuriosa. As to the kind of experiment: Antifungal activity against Issatchenkia hanoiensis MTCC 4755 after 24 hr by microtiter broth dilution method. It counts as functional.
Test [16] has as its system [Candida] aaseri. The test can be described thus: Antifungal activity against Candida aaseri MTCC 1962 after 24 hr by microtiter broth dilution method. It counts as functional.
In test [17] the test system is Pichia kudriavzevii. The test can be described thus: Antifungal activity against Pichia kudriavzevii MTCC 3020 after 24 hr by microtiter broth dilution method. In kind it is functional.
Test [18] concerns Nakaseomyces glabratus. The test can be described thus: Antifungal activity against Candida glabrata MTCC 3019 after 24 hr by microtiter broth dilution method. It counts as functional.
Test [19] deals with Candida parapsilosis. As to the kind of experiment: Antifungal activity against Candida parapsilosis MTCC 1744 after 24 hr by microtiter broth dilution method. It counts as functional.
Test [20] relates to Candida albicans. As to the kind of experiment: Antifungal activity against Candida albicans MTCC 3018 after 24 hr by microtiter broth dilution method. In kind it is functional. The settings on record: MTCC 3018, 24 h.
The test system of test [21] is Candida albicans. The test can be described thus: Antifungal activity against Candida albicans MTCC 3017 after 24 hr by microtiter broth dilution method. It counts as functional.
The subject of test [22] is Candida albicans. As to the kind of experiment: Antifungal activity against Candida albicans MTCC 3958 after 24 hr by microtiter broth dilution method. It counts as functional. The settings on record: MTCC 3958, 24 h.
The test system of test [23] is Candida albicans. As to the kind of experiment: Antifungal activity against Candida albicans MTCC 1637 after 24 hr by microtiter broth dilution method. The settings on record: MTCC 1637, 24 h. It counts as functional.
Test [24] has as its system Candida albicans. As to the kind of experiment: Antifungal activity against Candida albicans MTCC 183 after 24 hr by microtiter broth dilution method. In kind it is functional. The settings on record: MTCC 183, 24 h.
Test [25] has as its system MDA-MB-231. As to the kind of experiment: Cytotoxicity against Homo sapiens (human) MDA-MB-231 cells by tetrazolium-reduction assay. It counts as functional, cell-based.
Test [26] relates to MCF7. As to the kind of experiment: Cytotoxicity against Homo sapiens (human) MCF7 cells by tetrazolium-reduction assay. In kind it is functional, cell-based. The settings on record: mcf7.
[27] abbreviates: Yamadazyma aaseri, MTCC 1962, 24 h.
[28] abbreviates: Lodderomyces parapsilosis, MTCC 1744, 24 h.

Usually MIC stands for the smallest concentration in the dilution series that meets the test's criterion for growth inhibition. Take `NC[C@@H]1O[C@H](O[C@H]2[C@@H](O)[C@H](O[C@@H]3[C@@H](O)[C@H](N)C[C@H](N)[C@H]3O[C@H]3O[C@H](CN)[C@@H](O)[C@H](O)[C@H]3N)O[C@@H]2CO)[C@H](N)[C@@H](O)[C@@H]1O` [FRAMYCETIN]: the MIC in test [1] (MTCC 2453, 24 h) stood at 18.8 µg/mL (≈ 30.5 µM); in test [2], 18.8 µg/mL (≈ 30.5 µM); in test [3] (MTCC 121, 24 h), 18.8 µg/mL (≈ 30.5 µM); in test [4], 18.8 µg/mL (≈ 30.5 µM).

One may read the IC50 as the midpoint of a concentration-inhibition curve. High values mean weaker potency, low ones greater potency. On to `CCCCCCCCCCCCCC(=O)Oc1ccc(/C=N/Cc2cccnc2)cc1`, for which the MIC was determined as 300 µg/mL (≈ 710 µM) in [5]; 300 µg/mL (≈ 710 µM) in test [6]; 300 µg/mL (≈ 710 µM) in [7]; 75 µg/mL (≈ 177 µM) in test [2]; 75 µg/mL (≈ 177 µM) in test [4]; 300 µg/mL (≈ 710 µM) in test [20]. Also, the MIC was 300 µg/mL (≈ 710 µM) in test [21] (MTCC 3017, 24 h); 300 µg/mL (≈ 710 µM) in test [22]; 300 µg/mL (≈ 710 µM) in [23]; 300 µg/mL (≈ 710 µM) in [24]. Moreover, the outcome in test [8], in test [9], in [10], in test [11], in test [12] and in [13] was inactive. In addition, the outcome in test [14] was inactive. Further, the MIC result in test [1], in [3], in test [15], in [16], in test [17] and in [18] was “inactive” each time. Further, the MIC entry in test [19] was “inactive”. Moreover, the values for the IC50 in test [25] and in [26] were 26.6 µM and “Not Active”, respectively.

For `COc1cccc2c1C(=O)c1c(O)c3c(c(O)c1C2=O)C[C@@](O)(C(=O)CO)C[C@@H]3O[C@H]1C[C@H](N)[C@H](O)[C@H](C)O1` [DOXORUBICIN], in test [25], the IC50 is less than 1 µM.

Take `CCCCCCCCCC(=O)Oc1ccc(/C=N/Cc2cccnc2)cc1`: the MIC in test [5] was determined as 300 µg/mL (≈ 819 µM); in [6], 300 µg/mL (≈ 819 µM); in test [7], 300 µg/mL (≈ 819 µM); in test [1] (MTCC 2453, 24 h), 75 µg/mL (≈ 205 µM); in [2], 300 µg/mL (≈ 819 µM); in test [4], 37.5 µg/mL (≈ 102 µM). The MIC in test [15] (MTCC 4755, 24 h) amounted to 75 µg/mL (≈ 205 µM); in [16] (setting [27]) it was 75 µg/mL (≈ 205 µM); in test [17] (MTCC 3020, 24 h), 150 µg/mL (≈ 409 µM); in [18] (MTCC 3019, 24 h), 150 µg/mL (≈ 409 µM); in [19] (setting [28]), 150 µg/mL (≈ 409 µM); in test [20] it was 75 µg/mL (≈ 205 µM). Further, the MIC in [22], in test [23] and in [24] was 300 µg/mL (≈ 819 µM) in each case. In addition, the outcome in test [8], in test [9], in [10], in [11], in test [12] and in test [13] was inactive. In test [14], the outcome was inactive. In addition, the MIC entry in test [3] and in test [21] was “inactive” each time.

With `OC(Cn1cncn1)(Cn1cncn1)c1ccc(F)cc1F` [FLUCONAZOLE], the MIC in test [5] came to 32 µg/mL (≈ 104 µM); in [6], 32 µg/mL (≈ 104 µM); in test [7], 32 µg/mL (≈ 104 µM); in test [15] (MTCC 4755, 24 h) it was 64 µg/mL (≈ 209 µM); in test [16] (setting [27]) it was 64 µg/mL (≈ 209 µM); in test [17] (MTCC 3020, 24 h) it was 128 µg/mL (≈ 418 µM). Moreover, the MIC in test [18] (MTCC 3019, 24 h) was found to be 64 µg/mL (≈ 209 µM); in test [19] (setting [28]), 16 µg/mL (≈ 52.2 µM); in test [20], 32 µg/mL (≈ 104 µM); in test [21] (MTCC 3017, 24 h), 64 µg/mL (≈ 209 µM); in [22], 64 µg/mL (≈ 209 µM); in test [23] it was 64 µg/mL (≈ 209 µM). The molecule also came in with an MIC in [24] of 32 µg/mL (≈ 104 µM).
